Results from patent US20260125440A1, “INCRETIN ANALOGS AND USES THEREOF” (ELI LILLY AND COMPANY, priority 2019, published 2026).
Where “and” joins values, the source holds several entries; their conditions need not be identical. Equal entries are not always repeated. Where two headings read alike, the source gives them in different places. Marks after values point to notes of the source that are not given here.

Tests used:
hGCGR = target: T1, hGCGR (Homo sapiens, UniProt P47871, DEL55-55); assay: Functional cAMP assay in HEK-293 cells expressing hGCGR; assay type: cell-based; conditions: percent of maximal response to GCG
T1 construct: expressed in transfected cells; host or cells: HEK-293 clonal cell line
Experimental: (§1) Experiments also are performed under identical assay conditions with the addition of 1.0% fatty acid free, globulin free human serum albumin (Sigma Cat #A3782).
(§2) After a 30-min incubation at 37° C., the resulting increase in intracellular cAMP is quantitatively determined using a CisBio cAMP Dynamic 2 HTRF Assay Kit (62AM4PEJ). Briefly, cAMP levels within the cell are detected by adding the cAMP-d2 conjugate in cell lysis buffer (10 μL) followed by the antibody anti-cAMP-Eu^3+-Cryptate, also in cell lysis buffer (10 μL). The resulting competitive assay is incubated for at least 60 min at room temperature, and then is detected using a PerkinElmer Envision® instrument with excitation at 320 nm and emission at 665 nm and 620 nm. Envision units (emission at 665 nm/620 nm*10,000) are inversely proportional to the amount of cAMP present and are converted to nM cAMP per well using a cAMP standard curve. […] A relative EC50 value and percent top (Emax) are derived by non-linear regression analysis using the percent maximal response vs. the concentration of peptide added, fitted to a four-parameter logistic equation.

[1] = Pharmacokinetics in male diet-induced obese (DIO) mice; assay type: in vivo; conditions: mouse, subcutaneous, single 200 nmol/kg SQ dose, plasma
Experimental: Methods: Male DIO mice are administered a single SQ dose of 200 nmol/kg (0.98 mg/kg) of Example compounds in 40 mM Tris-HCL pH8 buffer with 0.02% PS80 at a volume of 10 mL/kg. […] Plasma concentration of Example compounds are determined by a qualified Liquid Chromatography Mass Spectrometry (LC/MS) method at Q Squared Solutions BioSciences LLC (Ithaca, NY). The Example compounds and an internal standard are extracted from 100% mouse plasma using protein precipitation followed by solid phase extraction. The intact mass of the Example compounds, which includes peptide plus acyl chain, are detected by a Q-Exactive™ Orbitrap® mass spectrometer.

hGIPR = target: T2, hGIPR (Homo sapiens, UniProt P48546); assay: Functional cAMP assay in HEK-293 cells expressing hGIPR; assay type: cell-based; conditions: percent of maximal response to GIP(1-42)NH2, read-out: hGIPR Emax
T2 construct: expressed in transfected cells; host or cells: HEK-293 clonal cell line
T2 sequence (P48546 22-466): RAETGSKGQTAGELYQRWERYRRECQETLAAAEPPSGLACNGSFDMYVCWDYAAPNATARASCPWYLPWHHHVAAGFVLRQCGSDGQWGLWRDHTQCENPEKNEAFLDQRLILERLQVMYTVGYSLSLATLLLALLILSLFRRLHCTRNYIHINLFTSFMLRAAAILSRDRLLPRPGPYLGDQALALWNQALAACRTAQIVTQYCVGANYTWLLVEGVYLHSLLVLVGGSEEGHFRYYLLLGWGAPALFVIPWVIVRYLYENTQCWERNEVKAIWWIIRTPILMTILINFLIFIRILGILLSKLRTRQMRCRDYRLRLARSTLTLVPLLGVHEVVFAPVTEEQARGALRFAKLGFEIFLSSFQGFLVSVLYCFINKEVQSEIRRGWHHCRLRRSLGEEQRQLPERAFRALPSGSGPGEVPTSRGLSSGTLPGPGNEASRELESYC
Experimental: as §1, §2

hGLP-1R = target: T3, hGLP-1R (Homo sapiens, UniProt P43220); assay: Functional cAMP assay in HEK-293 cells expressing hGLP-1R; assay type: cell-based; conditions: percent of maximal response to GLP-1(7-36)NH2, read-out: hGLP-1R Emax
T3 construct: expressed in transfected cells; host or cells: HEK-293 clonal cell line
Experimental: as §1, §2

[2] = Insulin secretion during ivGTT in male Wistar rats; assay type: in vivo; conditions: Sema: semaglutide 10 nmol/kg positive control, one per run of each Example compound
Experimental: Methods: An intravenous glucose tolerance test (ivGTT) in Male Wistar rats is used to estimate insulinotropic potency of the Example compounds. A GLP-1R agonist, semaglutide, is used as a positive control. […] Semaglutide is used as positive control in connection with each run of Example compounds ([…] dose).
A time 0 blood sample is collected into EDTA tubes after which glucose is administered ([…], 5 mL/kg). Blood samples are collected for glucose and insulin levels at time 2, 4, 6, 10, 20 and 30 min post intravenous administration of glucose. Plasma insulin is determined using an electrochemiluminescence assay (Meso Scale; Rockville, MD).
Statistical analysis is performed using JMP with a one-way ANOVA followed by Dunnett's comparison to the vehicle control.

[3] = Weight loss, metabolism and body composition in DIO C57/B16 mice; assay type: in vivo
Experimental: Methods: To investigate the effects of the Example compounds on parameters such as weight loss, metabolism and body composition, the Example compounds are dosed to C57B16 DIO mice. These animals, although not diabetic, display insulin resistance and dyslipidemia, all characteristics of metabolic syndrome, after being placed on a high fat diet for 20 weeks.
Here, DIO male C57/B16 mice at 20 weeks old are maintained on a calorie-rich diet are used in the following studies. […] After a 3-week acclimation to the facility, which includes 1 week of vehicle acclimation dosing, the mice are randomized according to their body weight, so each experimental group of animals would have similar body weight.
All groups contain 6 mice. […] Body weight and food intake are measured daily throughout the study, including 1 day after last dose (Day 15).
Absolute changes in body weight are calculated by subtracting the body weight of the same animal prior to the first injection of molecule. On Days 0 and 15, total fat mass is measured by nuclear magnetic resonance (NMR) using an Echo Medical System (Houston, TX) instrument. On Day 15, metabolic parameters are measured using Accu-Chek® Aviva® Glucometers (Roche; Indianapolis, IN) or a Hitachi clinical blood analyzer (Roche, Indianapolis, IN). Plasma insulin is determined using an electrochemiluminescence assay (Meso Scale Discovery, Rockville, MD).
Data are presented as mean±t SEM of 6animals per group in Tables 7 and 8 below. Statistical analysis is performed using repeated measures ANOVA, followed by Dunneti's method for multiple comparisons. Significant differences are identified as * with p<0.05.

[4] = HEK293, 0.1% bovine casein and 1.0% human serum albumin
[5] = 10 nmol/kg SQ daily, day 15 difference vs vehicle, DIO mice

T3 sequence (P43220 24-463): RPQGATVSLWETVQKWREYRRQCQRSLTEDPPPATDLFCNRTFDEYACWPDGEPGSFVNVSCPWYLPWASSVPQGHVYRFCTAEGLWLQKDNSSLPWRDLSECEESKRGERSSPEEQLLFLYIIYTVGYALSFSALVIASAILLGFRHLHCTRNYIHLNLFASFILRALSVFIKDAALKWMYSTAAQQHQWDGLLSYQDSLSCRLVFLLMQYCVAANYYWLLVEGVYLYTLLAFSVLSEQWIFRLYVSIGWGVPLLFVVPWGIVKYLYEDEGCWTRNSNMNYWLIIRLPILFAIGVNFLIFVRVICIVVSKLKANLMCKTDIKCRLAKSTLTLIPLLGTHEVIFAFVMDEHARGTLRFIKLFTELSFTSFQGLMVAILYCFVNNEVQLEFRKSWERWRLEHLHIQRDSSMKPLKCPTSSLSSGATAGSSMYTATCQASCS
T1 sequence (P47871 with tags, fused parts or gaps DEL55-55): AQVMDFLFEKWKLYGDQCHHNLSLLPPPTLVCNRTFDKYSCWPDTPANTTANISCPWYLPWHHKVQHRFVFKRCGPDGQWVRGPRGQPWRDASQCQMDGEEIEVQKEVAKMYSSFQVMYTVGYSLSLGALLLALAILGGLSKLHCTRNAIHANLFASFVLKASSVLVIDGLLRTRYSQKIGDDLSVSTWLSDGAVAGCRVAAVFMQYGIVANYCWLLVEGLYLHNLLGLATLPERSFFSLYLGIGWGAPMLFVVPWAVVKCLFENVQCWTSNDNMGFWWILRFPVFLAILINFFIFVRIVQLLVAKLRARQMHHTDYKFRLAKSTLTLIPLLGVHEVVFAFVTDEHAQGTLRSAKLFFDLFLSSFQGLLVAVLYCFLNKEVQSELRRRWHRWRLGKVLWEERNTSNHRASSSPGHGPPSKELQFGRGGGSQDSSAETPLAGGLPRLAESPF

## CC[C@H](C)[C@H](NC(=O)[C@H](Cc1ccccc1)NC(=O)C(C)(C)NC(=O)[C@](C)(CC(C)C)NC(=O)[C@H](CCC(N)=O)NC(=O)[C@H](C)NC(=O)[C@H](CCCCNC(=O)COCCOCCNC(=O)CC[C@H](NC(=O)CCCCCCCCCCCCCCCCCCC(=O)O)C(=O)O)NC(=O)[C@H](CCCN)NC(=O)[C@H](CC(=O)O)NC(=O)[C@H](CC(C)C)NC(=O)[C@](C)(CC(C)C)NC(=O)[C@@H](NC(=O)[C@H](CO)NC(=O)[C@H](Cc1ccncc1)NC(=O)[C@H](CC(=O)O)NC(=O)[C@H](CO)NC(=O)[C@@H](NC(=O)[C@](C)(Cc1ccccc1F)NC(=O)[C@@H](NC(=O)CNC(=O)[C@H](CCC(N)=O)NC(=O)C(C)(C)NC(=O)[C@@H](N)Cc1ccc(O)cc1)[C@@H](C)O)[C@@H](C)O)[C@@H](C)CC)C(=O)N[C@H](CCC(=O)O)C(=O)N[C@@](C)(Cc1ccc(O)cc1)C(=O)N[C@@H](CC(C)C)C(=O)N[C@@H](CC(C)C)C(=O)N[C@@H](CCC(=O)O)C(=O)NCC(=O)NCC(=O)N1CCC[C@H]1C(=O)N[C@@H](CO)C(=O)N[C@@H](CO)C(=O)NCC(=O)N[C@@H](CCC(=O)O)C(=O)N1CCC[C@H]1C(=O)N1CCC[C@H]1C(=O)N1CCC[C@H]1C(=O)N[C@@H](CO)C(N)=O [Example 3]
hGCGR; [4]
  Emax: 97 ± 9%
hGCGR; HEK293, 0.1% bovine casein
  Emax: 99 ± 4%
[1]
  AUC(0-inf): 32.8 µM·h
  CL/F: 0.102 mL/min/kg
  Cmax: 1070 nM
  Tmax: 12 h
[1]; read-out: t½ (converted)
  half-life: 13 h
hGIPR; [4]
  Emax: 105 ± 5%
hGIPR; HEK293, 0.1% bovine casein
  Emax: 103 ± 2%
hGLP-1R; [4]
  Emax: 111 ± 5%
hGLP-1R; HEK293, 0.1% bovine casein
  Emax: 107 ± 2%

## semaglutide
[2]
  AUC30 min of Insulin After Bolus IV Glucose: 76.4 and 76.6 and 80.9
[3]; 10 nmol/kg SQ daily 14 days, day 15, difference vs vehicle, DIO mice
  Δ Body Weight (g): −9.23 ± 0.58* g
[3]; [5]
  Δ Cholesterol: −73.33 ± 4.17* mg/dL
  Δ Glucose: -18.33 ± 2.81 mg/dL
  Δ Insulin: -4.15 ± 2.23 ng/mL
  Δ Trigs: 16.00 ± 0.38 mg/dL
[3]; 10 nmol/kg SQ daily, difference in fat mass between days 0 and 15 (NMR), DIO mice
  Fat Mass (%): −15.14 ± 1.93* %
[3]; 10 nmol/kg SQ daily, percent decrease between days 1 and 15, DIO mice
  Δ Body Weight (%): −21.98 ± 2.58* %
